From PMC7567097, “A nanoluciferase SARS-CoV-2 for rapid neutralization testing and screening of anti-infective drugs for COVID-19” (Nature Communications, 2020)
Values joined by “and” are separate entries in the source; they are usually repeats but may differ in a detail not shown here. Identical values can stand only once. Like-named read-outs stand apart in the source and are kept apart here.

Legend:
[1] = test system: A549-hACE2 cells
[2] = test system: SARS-CoV-2-Nluc; assay: microbe, parasite or virus in culture; type: cell-based; conditions: Severe acute respiratory syndrome coronavirus 2, Vero C1008, 48 h
[3] = in vitro; conditions: human; for viability: cell viability (% of DMSO control)
[4] = test system: SARS-CoV-2-Nluc; assay: microbe, parasite or virus in culture; type: cell-based
[5] = Cytotoxicity assay (CCK-8, 72 h) in Vero E6 cells; type: cell-based, African green monkey; conditions: African green monkey, Vero E6 cells; for viability at 72 h: Vero, two replicates, read-out: cell viability (% of DMSO control); for CC50 at 72 h: 3-day cytotoxicity
[6] = test system: Vero E6 cells; assay: Cytotoxicity assay (CCK-8, 72 h) in Vero E6 cells; type: cell-based, African green monkey; conditions: Vero, two replicates
[7] = test system: COVID-19; set-up: method as in PMID 32649078; conditions: 1063 patients hospitalized with COVID-19; placebo group 15 days; cited from earlier work
[8] = test system: COVID-19; set-up: method as in PMID 32392282; conditions: >1400 patients, compared with no treatment; cited from earlier work
[9] = data from literature; ref [51]-[68]; cited from earlier work
[10] = Severe acute respiratory syndrome coronavirus 2, 48 h
[11] = Severe acute respiratory syndrome coronavirus 2, read-out: EC50 (µM) Replicate 1
[12] = Severe acute respiratory syndrome coronavirus 2, read-out: EC50 (µM) Replicate 2

With CCN(CC)CCCC(C)Nc1ccnc2cc(Cl)ccc12 (centres unmarked) [Chloroquine] the “cell viability (% of DMSO control)” value ([1]; Concentration 0.00152416) was 94.76%, the “cell viability (% of DMSO control)” value ([1]; Concentration 0.00457247) was 100.03% and the “cell viability (% of DMSO control)” value ([1]; Concentration 0.0137174) was 97.21%. The “cell viability (% of DMSO control)” value ([1]; Concentration 0.0411523) was 100.16%, the “cell viability (% of DMSO control)” value ([1]; Concentration 0.123457) was 98.53% and the “cell viability (% of DMSO control)” value ([1]; Concentration 0.37037) was 99.78%. The “cell viability (% of DMSO control)” value ([1]; Concentration 1.11111) was 100.72%, the “cell viability (% of DMSO control)” value ([1]; Concentration 3.33333) was 101.54% and the “cell viability (% of DMSO control)” value ([1]; Concentration 10) was 101.98%. For the same molecule, the EC50 [2] was 3.52 µM, the CC50 ([3]; CC50) was over 50 µM and the CC50 ([3]; CC50 (µM) Replicate 1) was over 50 µM. The CC50 ([3]; CC50 (µM) Replicate 2) was over 50 µM, the viability ([3]; Concentration 0.00152416) was 105% and the viability ([3]; Concentration 0.00457247) was 106%. It also gave a viability ([3]; Concentration 0.0137174) of 103%, a viability ([3]; Concentration 0.0411523) of 104% and a viability ([3]; Concentration 0.123457) of 105%. The viability ([3]; Concentration 0.37037) was 104%, the viability ([3]; Concentration 1.11111) was 104% and the viability ([3]; Concentration 3.33333) was 104%. For the same molecule, the viability ([3]; Concentration 10) was 108%, the EC50 [4, 10] was 1.32 ± 0.36 µM and the EC50 [4, 11] was 1.06 µM. It also gave an EC50 [4, 12] of 1.57 µM, a viability at 72 h ([5]; Concentration 0.00152416) of 112% and a viability at 72 h ([5]; Concentration 0.00457247) of 113%. It also gave a viability at 72 h ([5]; Concentration 0.0137174) of 100%, a viability at 72 h ([5]; Concentration 0.123457) of 83.5% and a viability at 72 h ([5]; Concentration 0.37037) of 80.1%. The viability at 72 h ([5]; Concentration 1.11111) was 81.4%, the viability at 72 h ([5]; Concentration 3.33333) was 75.3% and the viability at 72 h ([5]; Concentration 10) was 76.5%. For the same molecule, the CC50 at 72 h [5] was over 50 µM, the “cell viability (% of DMSO control)” value ([6]; Concentration 0.00152416) was 109.35% and the “cell viability (% of DMSO control)” value ([6]; Concentration 0.00457247) was 115.44%. For the same molecule, the “cell viability (% of DMSO control)” value ([6]; Concentration 0.0137174) was 94.62%, the “cell viability (% of DMSO control)” value ([6]; Concentration 0.0411523) was 86.94% and 111.97% and the “cell viability (% of DMSO control)” value ([6]; Concentration 0.123457) was 83.36%. For the same molecule, the “cell viability (% of DMSO control)” value ([6]; Concentration 0.37037) was 78.26%, the “cell viability (% of DMSO control)” value ([6]; Concentration 1.11111) was 94.9% and the “cell viability (% of DMSO control)” value ([6]; Concentration 3.33333) was 72.03%. The “cell viability (% of DMSO control)” value ([6]; Concentration 10) was 73.87%.
In the case of CCC(CC)COC(=O)[C@H](C)N[P@](=O)(OC[C@H]1O[C@@](C#N)(c2ccc3c(N)ncnn23)[C@H](O)[C@@H]1O)Oc1ccccc1 [Remdesivir], the “cell viability (% of DMSO control)” value ([1]; Concentration 0.00152416) is reported as 98.72%, the “cell viability (% of DMSO control)” value ([1]; Concentration 0.00457247) is reported as 97.64% and the “cell viability (% of DMSO control)” value ([1]; Concentration 0.0137174) is reported as 95.55%. The “cell viability (% of DMSO control)” value ([1]; Concentration 0.0411523) was 98.85%, the “cell viability (% of DMSO control)” value ([1]; Concentration 0.123457) was 98.18% and the “cell viability (% of DMSO control)” value ([1]; Concentration 0.37037) was 92.18%. For the same molecule, the “cell viability (% of DMSO control)” value ([1]; Concentration 1.11111) was 95.21%, the “cell viability (% of DMSO control)” value ([1]; Concentration 3.33333) was 90.42% and the “cell viability (% of DMSO control)” value ([1]; Concentration 10) was 87.86%. It also gave a CC50 ([1]; human) of 32.7 ± 5.2 µM, an EC50 [2] of 1.28 µM and a CC50 ([3]; CC50) of 32.5 µM. It also gave a CC50 ([3]; CC50 (µM) Replicate 1) of 29 µM, a CC50 ([3]; CC50 (µM) Replicate 2) of 36.4 µM and a viability ([3]; Concentration 0.00152416) of 100%. It also gave a viability ([3]; Concentration 0.00457247) of 99.8%, a viability ([3]; Concentration 0.0137174) of 102% and a viability ([3]; Concentration 0.0411523) of 102%. The viability ([3]; Concentration 0.123457) was 101%, the viability ([3]; Concentration 0.37037) was 96.9% and the viability ([3]; Concentration 1.11111) was 100%. The viability ([3]; Concentration 3.33333) was 101%, the viability ([3]; Concentration 10) was 84.9% and the EC50 [4, 10] was 0.115 ± 0.007 µM. For the same molecule, the EC50 [4, 11] was 0.11 µM, the EC50 [4, 12] was 0.12 µM and the viability at 72 h ([5]; Concentration 0.00152416) was 100%. The viability at 72 h ([5]; Concentration 0.00457247) was 102%, the viability at 72 h ([5]; Concentration 0.0137174) was 91.3% and the viability at 72 h ([5]; Concentration 0.0411523) was 104%. For the same molecule, the viability at 72 h ([5]; Concentration 0.123457) was 80.3%, the viability at 72 h ([5]; Concentration 0.37037) was 80.3% and the viability at 72 h ([5]; Concentration 1.11111) was 102%. The viability at 72 h ([5]; Concentration 3.33333) was 87.9%, the viability at 72 h ([5]; Concentration 10) was 68% and the CC50 at 72 h [5] was over 50 µM. The “cell viability (% of DMSO control)” value ([6]; Concentration 0.00152416) was 98.69%, the “cell viability (% of DMSO control)” value ([6]; Concentration 0.00457247) was 100.09% and the “cell viability (% of DMSO control)” value ([6]; Concentration 0.0137174) was 99.13%. For the same molecule, the “cell viability (% of DMSO control)” value ([6]; Concentration 0.0411523) was 93.89%, the “cell viability (% of DMSO control)” value ([6]; Concentration 0.123457) was 91.88% and the “cell viability (% of DMSO control)” value ([6]; Concentration 0.37037) was 90.48%. For the same molecule, the “cell viability (% of DMSO control)” value ([6]; Concentration 1.11111) was 90.39%, the “cell viability (% of DMSO control)” value ([6]; Concentration 3.33333) was 89.52% and the “cell viability (% of DMSO control)” value ([6]; Concentration 10) was 70.92%. The recovery time [7] was 11 days.
In the case of CC[C@H]1OC(=O)[C@H](C)[C@@H](O[C@H]2C[C@@](C)(OC)[C@@H](O)[C@H](C)O2)[C@H](C)[C@@H](O[C@@H]2O[C@H](C)C[C@H](N(C)C)[C@H]2O)[C@](C)(O)C[C@@H](C)CN(C)[C@H](C)[C@@H](O)[C@]1(C)O [azithromycin], the “association of treatment with fatality rate among hospitalized patients” value [8] is given as “not associated with significant differences in fatality rate”.
For CCN(CCO)CCCC(C)Nc1ccnc2cc(Cl)ccc12 (centres unmarked) [hydroxychloroquine], the “association of treatment with fatality rate among hospitalized patients” value [8] is listed as “not associated with significant differences in fatality rate”.
In the case of Cc1cccc(C)c1OCC(=O)N[C@@H](Cc1ccccc1)[C@@H](O)C[C@H](Cc1ccccc1)NC(=O)[C@H](C(C)C)N1CCCNC1=O [Lopinavir], the Plasma protein binding [9] is listed as 98–99%, the CC50 ([3]; CC50) is listed as 31.5 ± 2.5 µM and the CC50 ([3]; CC50 (µM) Replicate 1) is listed as 29.8 µM. The CC50 ([3]; CC50 (µM) Replicate 2) was 33.3 µM, the EC50 [4, 10] was 9 ± 0.42 µM and the EC50 [4, 11] was 9.3 µM. The EC50 [4, 12] was 8.7 µM.
For O=C(NCc1c(F)cc(F)cc1F)c1cn2c(c(O)c1=O)C(=O)N1[C@H]3CC[C@H](C3)O[C@@H]1C2 [Bictegravir], the Plasma protein binding [9] is given as over 99%, the CC50 ([3]; CC50) is given as over 50 µM and the EC50 [4, 10] is given as over 10 µM.
